In patent US4169953A (priority 1977, dated 1979):
Values after ≈ are worked out from the molar mass of the structure shown. Structures can show the parent of a compound that is named as a salt.

Columns and labels:
[1] = in vitro; details: chicken, chick embryo fibroblasts
[2] = system: Newcastle disease virus; assay: microbe, parasite or virus in culture; type: cell-based; details: avian paramyxovirus 1, in Gallus gallus

Row | Compound | MCC [1] [µg/mL] | MIC [2] [µg/mL]
1 | O=C(OC1CCCC1)C12CCCC(C1)C1CCC2C1 (centres unmarked) | 200 | 40 (≈ 152 µM)
2 | O=C(OC1CCCCC1)C12CCCC(C1)C1CCC2C1 (centres unmarked) | 200 | 200 (≈ 724 µM)
3 | O=C(OC1CC2CC1C1CCCC21)C12CCCC(C1)C1CCC2C1 (centres unmarked) | 1000 | 200 (≈ 609 µM)
4 | COC(=O)C12CCCC(C1)C1CCC2C1 (centres unmarked) [CH3] | 200 | 200 (≈ 960 µM)
5 | NC12CC3CC(CC(C3)C1)C2 [adamantylamine hydrochloride, reference compound] | 250 | 250
6 | CCCCOC(=O)C12CCCC(C1)C1CCC2C1 (centres unmarked) [n-C4 H9] | 200 | 40 (≈ 160 µM)
7 | CCCCCCCCOC(=O)C12CCCC(C1)C1CCC2C1 (centres unmarked) [n-C8 H17] | 1000 | 200 (≈ 653 µM)
